From ChEMBL document CHEMBL3124811, “Potent and selective double-headed thiophene-2-carboximidamide inhibitors of neuronal nitric oxide synthase for the treatment of melanoma” (J Med Chem, 2014)

What was measured:
[1] = Selectivity ratio of Ki(app) for recombinant bovine eNOS to Ki(app) for recombinant rat nNOS
[2] = target: Nitric oxide synthase 1 (Rattus norvegicus, UniProt P29476)
[3] = target: T1, Nitric oxide synthase 3 (Bos taurus, UniProt P29473)
T1 sequence (P29473 whole entry): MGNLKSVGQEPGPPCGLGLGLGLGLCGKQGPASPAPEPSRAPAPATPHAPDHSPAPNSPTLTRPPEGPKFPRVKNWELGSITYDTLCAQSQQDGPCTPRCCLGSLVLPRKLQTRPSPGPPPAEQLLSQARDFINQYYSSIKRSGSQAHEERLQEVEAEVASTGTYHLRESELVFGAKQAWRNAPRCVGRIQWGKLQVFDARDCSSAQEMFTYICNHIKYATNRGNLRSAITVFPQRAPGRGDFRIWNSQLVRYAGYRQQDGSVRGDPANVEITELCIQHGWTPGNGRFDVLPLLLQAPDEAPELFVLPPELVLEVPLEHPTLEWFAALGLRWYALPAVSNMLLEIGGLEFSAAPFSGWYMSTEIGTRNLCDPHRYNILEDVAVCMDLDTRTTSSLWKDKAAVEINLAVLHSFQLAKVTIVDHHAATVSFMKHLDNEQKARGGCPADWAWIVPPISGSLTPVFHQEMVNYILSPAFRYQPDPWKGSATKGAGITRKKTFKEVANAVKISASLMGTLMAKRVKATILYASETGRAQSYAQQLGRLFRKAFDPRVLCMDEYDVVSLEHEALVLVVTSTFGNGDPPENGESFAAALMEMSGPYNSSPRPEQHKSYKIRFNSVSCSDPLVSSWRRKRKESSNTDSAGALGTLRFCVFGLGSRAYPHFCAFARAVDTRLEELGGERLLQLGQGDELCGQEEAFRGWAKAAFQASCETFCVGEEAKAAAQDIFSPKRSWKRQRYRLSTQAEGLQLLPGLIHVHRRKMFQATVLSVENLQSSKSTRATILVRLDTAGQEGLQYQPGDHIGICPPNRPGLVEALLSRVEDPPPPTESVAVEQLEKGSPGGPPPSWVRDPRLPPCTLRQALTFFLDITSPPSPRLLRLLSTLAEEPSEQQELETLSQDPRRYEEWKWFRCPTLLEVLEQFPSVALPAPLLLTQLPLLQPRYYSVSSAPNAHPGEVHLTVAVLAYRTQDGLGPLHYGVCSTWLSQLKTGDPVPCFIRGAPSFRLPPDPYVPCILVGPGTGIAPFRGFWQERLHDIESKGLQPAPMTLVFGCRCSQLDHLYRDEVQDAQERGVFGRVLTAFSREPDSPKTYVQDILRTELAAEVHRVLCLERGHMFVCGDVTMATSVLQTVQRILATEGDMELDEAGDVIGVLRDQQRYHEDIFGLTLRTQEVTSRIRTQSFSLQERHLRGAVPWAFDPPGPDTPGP

[4] = Selectivity ratio of Ki(app) for recombinant mouse iNOS to Ki(app) for recombinant rat nNOS
[5] = target: T2, Nitric oxide synthase, inducible (Mus musculus, UniProt P29477)
T2 sequence (P29477 whole entry): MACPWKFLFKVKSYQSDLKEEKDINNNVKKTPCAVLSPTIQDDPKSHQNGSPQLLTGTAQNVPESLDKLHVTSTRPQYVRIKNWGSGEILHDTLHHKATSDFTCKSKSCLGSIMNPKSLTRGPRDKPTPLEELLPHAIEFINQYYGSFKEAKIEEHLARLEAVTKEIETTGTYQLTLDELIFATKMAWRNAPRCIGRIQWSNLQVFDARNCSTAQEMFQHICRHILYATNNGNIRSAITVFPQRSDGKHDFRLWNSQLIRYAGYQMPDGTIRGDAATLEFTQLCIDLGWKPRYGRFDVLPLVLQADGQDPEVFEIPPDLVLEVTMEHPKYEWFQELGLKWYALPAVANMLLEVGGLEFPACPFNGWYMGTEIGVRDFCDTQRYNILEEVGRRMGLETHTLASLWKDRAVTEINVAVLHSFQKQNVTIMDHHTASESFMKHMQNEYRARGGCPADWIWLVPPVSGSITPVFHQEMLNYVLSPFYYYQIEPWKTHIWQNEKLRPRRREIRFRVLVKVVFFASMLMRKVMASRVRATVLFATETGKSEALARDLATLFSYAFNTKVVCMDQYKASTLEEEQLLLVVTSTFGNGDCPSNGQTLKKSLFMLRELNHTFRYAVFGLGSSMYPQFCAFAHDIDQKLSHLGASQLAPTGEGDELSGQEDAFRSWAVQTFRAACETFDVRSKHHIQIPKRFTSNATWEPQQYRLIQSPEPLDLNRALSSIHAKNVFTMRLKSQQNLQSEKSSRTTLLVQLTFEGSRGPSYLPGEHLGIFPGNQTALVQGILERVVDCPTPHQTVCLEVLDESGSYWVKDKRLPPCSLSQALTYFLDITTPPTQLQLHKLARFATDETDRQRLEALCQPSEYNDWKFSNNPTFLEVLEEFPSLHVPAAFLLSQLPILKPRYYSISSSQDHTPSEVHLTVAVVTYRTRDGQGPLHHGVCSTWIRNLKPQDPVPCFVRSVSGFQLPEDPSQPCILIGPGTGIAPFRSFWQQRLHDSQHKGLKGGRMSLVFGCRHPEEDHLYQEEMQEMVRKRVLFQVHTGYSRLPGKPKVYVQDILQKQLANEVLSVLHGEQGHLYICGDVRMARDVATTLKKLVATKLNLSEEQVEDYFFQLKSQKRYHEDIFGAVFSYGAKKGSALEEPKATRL

Sequence of Nitric oxide synthase 1 (P29476 whole entry): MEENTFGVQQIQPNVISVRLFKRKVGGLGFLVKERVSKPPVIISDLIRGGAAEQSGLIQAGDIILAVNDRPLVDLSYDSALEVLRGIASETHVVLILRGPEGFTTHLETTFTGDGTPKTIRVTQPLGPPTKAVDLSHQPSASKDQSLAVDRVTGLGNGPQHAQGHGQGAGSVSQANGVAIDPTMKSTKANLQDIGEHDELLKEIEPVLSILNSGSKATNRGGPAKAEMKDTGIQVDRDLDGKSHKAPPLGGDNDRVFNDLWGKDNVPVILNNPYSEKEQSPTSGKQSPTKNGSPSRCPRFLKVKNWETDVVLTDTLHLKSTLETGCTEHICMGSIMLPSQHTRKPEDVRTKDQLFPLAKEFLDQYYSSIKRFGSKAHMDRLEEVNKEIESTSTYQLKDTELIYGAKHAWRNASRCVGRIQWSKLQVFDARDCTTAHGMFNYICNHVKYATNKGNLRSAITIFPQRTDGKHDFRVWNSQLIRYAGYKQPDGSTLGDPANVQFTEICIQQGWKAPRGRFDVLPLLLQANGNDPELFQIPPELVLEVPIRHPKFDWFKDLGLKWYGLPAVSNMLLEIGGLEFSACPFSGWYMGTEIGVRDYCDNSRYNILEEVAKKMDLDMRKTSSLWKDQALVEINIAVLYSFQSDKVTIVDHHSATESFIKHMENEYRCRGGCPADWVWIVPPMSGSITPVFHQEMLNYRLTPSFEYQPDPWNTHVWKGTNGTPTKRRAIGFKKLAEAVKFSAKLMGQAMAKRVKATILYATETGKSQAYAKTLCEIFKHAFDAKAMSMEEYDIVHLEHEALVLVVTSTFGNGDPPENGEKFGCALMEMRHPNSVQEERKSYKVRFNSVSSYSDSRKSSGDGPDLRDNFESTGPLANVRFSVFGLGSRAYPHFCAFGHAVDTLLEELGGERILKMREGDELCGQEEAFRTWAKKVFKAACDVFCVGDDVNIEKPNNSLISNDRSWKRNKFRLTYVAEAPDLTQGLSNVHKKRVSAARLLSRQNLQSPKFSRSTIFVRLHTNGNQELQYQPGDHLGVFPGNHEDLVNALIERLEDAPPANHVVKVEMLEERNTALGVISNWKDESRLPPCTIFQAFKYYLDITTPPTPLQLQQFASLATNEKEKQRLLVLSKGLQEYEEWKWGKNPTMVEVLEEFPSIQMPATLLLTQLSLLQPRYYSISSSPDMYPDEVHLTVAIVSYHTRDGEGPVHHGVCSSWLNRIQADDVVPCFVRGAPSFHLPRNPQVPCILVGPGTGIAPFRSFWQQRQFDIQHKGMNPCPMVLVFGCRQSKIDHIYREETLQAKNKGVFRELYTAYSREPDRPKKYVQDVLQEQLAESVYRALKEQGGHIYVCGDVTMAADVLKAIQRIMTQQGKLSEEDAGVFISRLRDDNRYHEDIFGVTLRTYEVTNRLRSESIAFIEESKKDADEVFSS

SMILES | Ratio Ki(app) [1] | Ki [2] [µM] | Ki [3] [µM] | Ratio Ki(app) [4] | Ki [5] [µM]
N=C(Nc1cccc(CCc2cccc(NC(=N)c3cccs3)c2)c1)c1cccs1 | 89 | 0.739 | 66 | 141 | 104
N=C(Nc1cccc(-c2cccc(NC(=N)c3cccs3)c2)c1)c1cccs1 | 225 | 0.787 | 177 | 84 | 66.4
N=C(Nc1cccc(OCCCOc2cccc(NC(=N)c3cccs3)c2)c1)c1cccs1 | 17 | 0.237 | 4 | 53 | 12.6

The next lines start with the values.

Ratio Ki(app) [1] | Ki [2] [µM] | Ki [3] [µM] | Ratio Ki(app) [4] | Ki [5] [µM] | SMILES
 | 0.13 | 13.7 |  | 66.8 | NC(=Nc1cccc(OCCOc2cccc(N=C(N)c3cccs3)c2)c1)c1cccs1
105 |  |  | 513 |  | N=C(Nc1cccc(OCCOc2cccc(NC(=N)c3cccs3)c2)c1)c1cccs1
 |  | 133 |  | 79 | NC(=Nc1cccc(Cc2cccc(N=C(N)c3cccs3)c2)c1)c1cccs1
